This passage reports melting point results from a melting point compilation (Tetko et al.; mined from patent text by program, amines drawn as free bases though some values may be those of a salt).

In general, melting point refers to the temperature, or range, at which the solid turns liquid. Take `O=C(NC1CC2CCC1C2)n1cc(F)c(=O)[nH]c1=O` (centres undefined): the melting point is 252 to 255 °C.

Turning to `CN(C1CCCCC1)S(=O)(=O)c1ccc(CCSn2cnc3ccccc32)cc1`, the melting point lay within 60 to 63 °C.

`CC(=O)NC1=CC(C)(C)Oc2cc3nonc3cc21`: the melting point lay in the range of 218 to 220 °C.

Regarding `CCc1ccccc1OCC(C)NC(=O)C(C#N)C(C)(C)C` (centres undefined), the melting point was in the range of 94 to 97 °C.

Regarding `NNC(=O)c1ccc2[nH]nnc2c1`, the melting point was 295 to 296 °C.

The molecule `CC(C)NCC(O)COc1ccc2c(=O)cc(-c3cc(O)cc(O)c3)oc2c1` (centres undefined) yielded a melting point of 130 °C.

As to `CSc1cc(C(C)C)c(NC(=O)C2c3ccccc3COc3ccc(C)cc32)c(C(C)C)c1` (centres undefined), the melting point came out at 126 °C.

Molecule `COc1cc2c(cc1O)/C(=N/OCc1ccc([N+](=O)[O-])cc1)CC2` returned a melting point of 146 to 149 °C.

Molecule `O=C(CCCC1(c2ccccc2)CC(O)=C(SCc2ccccc2)C(=O)O1)NCc1ccccc1` (centres undefined) returned a melting point of 48 to 52 °C.

In turn, `CCOc1nc2cccc(CC)c2c(=O)o1` had a melting point of 89 to 91 °C.

The molecule `NCC(O)(CCc1ccccc1)CCc1ccccc1` displayed a melting point of 104 to 106 °C.

Regarding `NC(=S)c1cc(Cl)cc2cc(Cl)cnc12`, the melting point was 226 °C.

The molecule `COC(=O)c1ccc(C#CC(=O)c2ccc3c(c2)CCCC3(C)C)cc1O` had a melting point of 89 to 90 °C.

The molecule `C=CC(C)(C)C(=O)C(Oc1ccc(Cl)cc1)n1ccnc1` (centres undefined) came in with a melting point of 72 to 74 °C.

With `CCCc1ccc(NC=C(C(=O)OCC)C(=O)c2ccccc2Cl)cc1`, the melting point is 98.5 to 104 °C.

For the molecule `CC(C)(C)C1Cc2cc([N+](=O)[O-])ccc2N1` (centres undefined), the melting point lay in the range of 110 to 112 °C.

On to `CCOC(=O)c1cnoc1-c1ccc(C(F)(F)F)cc1`, for which the melting point was in the range of 42 to 44 °C.

Molecule `Cc1oc(-c2ccccc2)nc1COc1ccc(Cn2cc(CCCCC(=O)O)c(-c3ccccc3)n2)cc1` displayed a melting point of 109 to 110 °C.

The molecule `COC(=O)c1cc(OCCCCCCOc2ccc(-c3ccccc3)cc2)ccc1OCc1ccccc1` yielded a melting point of 85 to 87 °C.

In the case of `CN(C)c1ccc(C=CC(=O)N2CCc3c([nH]c4ccccc34)C2c2ccc3c(c2)CCO3)cn1` (centres undefined), the melting point was determined as 171 °C.

Consider `COc1ccc(S(=O)(=O)Nc2ccccc2/C=C/c2ccncc2C)cc1`, for which the melting point was 183 to 185 °C.

`O=[N+]([O-])c1ccc(SCCc2c[nH]cn2)cc1` registered a melting point of 167 to 168 °C.

The molecule `O=C1C2CCCCN2C(=O)N1c1ccccc1` (centres undefined) came in with a melting point of 186 to 187 °C.

`Cc1cc(-c2ccc(C(F)(F)F)cc2)cc(-c2cccc(-c3csc(N)n3)c2)n1` displayed a melting point of more than 250 °C.

Molecule `CC1Oc2ccc(O)cc2C=C1C=O` (centres undefined) yielded a melting point of 107 to 109 °C.

As to `O=C1C(Br)CCN1c1ncc(C(F)(F)F)s1` (centres undefined), the melting point was 105 to 106 °C.

`CCOC(=O)CCCn1c(C(=O)NCc2nnc(C)n2-c2sc(CC)cc2C(=O)c2ccccc2Cl)cc2cc(F)ccc21` returned a melting point of 127 to 128 °C.

`CC(C)(C)OC(=O)c1[nH]c2cc(Cl)cc(Cl)c2c1C=C1CON(c2ccccc2)C1=O` displayed a melting point of 120 °C.

As to `Nc1ccccc1CNC1CCC(=O)NC1=O` (centres undefined), the melting point was in the range of 48 to 54 °C.

In turn, `O=C1c2ccccc2-c2c1c1ccccc1c(=O)n2CCNCCO` had a melting point of 184 °C.

Regarding `O=c1[nH]nc(Cc2ccncc2)c2c1CCCC2`, the melting point lay within 193 to 194 °C.

The molecule `Cc1cc(-c2ccc(S(N)(=O)=O)cc2)n(-c2ccc(F)cc2F)c1` registered a melting point of 140 to 141 °C.

With `CCCCCCCCCCCCCCCC(O)=S`, the melting point is 64 to 66 °C.

For `Cc1ccc(S(=O)(=O)Nc2ccc(Oc3ccc4nc(COc5ccc(CC6SC(=O)NC6=O)cc5)n(C)c4c3)cc2)cc1` (centres undefined), the melting point was 132 to 136 °C.

On to `COc1ccc(CN2C(=O)C(O)(c3cc4c(C)noc4cc3O)c3ccccc32)cc1` (centres undefined), for which the melting point is 199 to 201 °C.

Consider `O=C(O)c1cc(S(=O)(=O)c2ccccc2)ccc1[N+](=O)[O-]`, for which the melting point was 210 to 212 °C.

As for `COC1(C)OC(=O)c2c(O)cccc21` (centres undefined), the melting point lay within 101 to 104 °C.

`CC(=Cc1c[nH]c2ccc3c(c12)CCCO3)[N+](=O)[O-]` yielded a melting point of 246 to 247 °C.

On to `CCOc1ccc(-c2nc(-c3cc4c(c(C(=O)O)c3)OC(C)(C)C4)cs2)cc1OCC`, for which the melting point lay within 106 to 107 °C.

For `CCc1noc(C)c1-c1[nH]c2ccccc2c1CC(N)=O`, the melting point is 194 to 195 °C.

On to `N#Cc1ccc2c(C#N)c3cc(C#N)ccc3c(C#N)c2c1`, for which the melting point was found to be 345 °C.

`Cc1scc2c1N(C(=O)Cl)c1ccccc1NC2=O` returned a melting point of 238 to 239 °C.

Regarding `O=C(Nc1ccc(F)c(NC(=S)Nc2cccc(C(F)(F)F)c2)c1)c1ccc(Cl)c(Cl)c1`, the melting point fell in the range of 172 to 174 °C.

`CCc1nc2c(cnn2CC)c(NC2CCOCC2)c1CNC(=O)c1cccc(C(=O)NCc2ccc(OC)c(-c3cccc(CN4CCNCC4)c3)c2)c1` returned a melting point of 138 to 140 °C.

`CN(C)CC#Cc1ccc2c(Nc3ccc(Cl)cc3Cl)c(C#N)cnc2c1` displayed a melting point of 144 to 145 °C.

On to `Cc1ccc2nc(-c3cccnc3N)n(-c3ccc(CNC(=O)c4ccccc4)cc3)c2n1`, for which the melting point lay within 203 to 205 °C.

`O=S(=O)(NN=C(Cl)c1ccccc1Br)c1ccccc1` had a melting point of 120 to 122 °C.

For `CCCc1nc(C=O)c[nH]1`, the melting point was 104 to 106 °C.

The molecule `CCC(C)Oc1ccc(OCCNC(=O)C2CC2)cc1` (centres undefined) gave a melting point of 65 to 68 °C.

`c1ccc(-c2nnc3n2-c2ccccc2Cn2cccc2-3)nc1` displayed a melting point of 255 to 257 °C.

As to `COc1ccc2c(c1)C(NC(=NC#N)SC)CCC2` (centres undefined), the melting point is 131 to 132 °C.

Turning to `CC(=O)N[C@@H](C)COc1ccc2nc(-c3ccc(OCC4CC4)c(F)c3F)oc2c1F`, the melting point came to 168 °C.

As for `Cc1cc(NC(=O)c2c(Cl)cccc2Cl)c2nccc(N3CCN(C)C3=O)c2c1C`, the melting point lay within 213 to 216 °C.

`Nc1nc(=O)n(CCCCn2cncn2)cc1F` showed a melting point of 197 to 200 °C.

Molecule `O=C(O)CCC(=O)c1ccc(Br)c(S(=O)(=O)Cl)c1` had a melting point of 183 to 185 °C.

For the molecule `COc1ccccc1-c1c(NC(=O)OC(C)(C)C)oc(=O)c2ccccc12`, the melting point was in the range of 203 to 205 °C.

`COC(=O)c1cccc(Cn2c(=O)c(=O)n(Cc3cccc(C(=O)O)c3)c3ccc([N+](=O)[O-])cc32)c1` came in with a melting point of 238 to 240 °C.

`O=C(O)c1ccc(Cn2cc(C3c4ccccc4C=Cc4ccccc43)c(=S)[nH]c2=O)o1` gave a melting point of 178 to 180 °C.

Take `Cc1cccc(C)c1C(=O)OC1CCCCC1=O` (centres undefined): the melting point is 82 to 83 °C.

In turn, `COCC[C@H]1CN(C2=Nc3ccccc3Nc3ccc(C(F)(F)F)cc32)CCN1C` registered a melting point of 48 to 56 °C.

Molecule `COc1ccc(C(=O)Nc2ccc(F)cc2)cc1N` returned a melting point of 164 to 167 °C.

The molecule `O=C(c1ccc(Cl)cc1)c1cccc(NC(=O)c2ccn3c2CSC3c2cccnc2)c1` (centres undefined) had a melting point of 176 °C.

The molecule `N[C@H](Cc1ccc(OC(=O)OCc2ccccc2)cc1)C(=O)O` returned a melting point of 208 to 210 °C.

As to `COC(=O)c1cc(C(=O)NCC(=O)O)cc([N+](=O)[O-])c1`, the melting point lay within 142 to 143 °C.

The molecule `O=C1CCC(N2C(=O)c3cccc(CNC(=O)Nc4ccc5c(c4)OCO5)c3C2=O)C(=O)N1` (centres undefined) gave a melting point of 216 to 218 °C.

For the molecule `CCOC(=O)CNC(=O)CNCc1ccc(-c2cc3ncnc(Nc4ccc5[nH]ccc5c4)c3s2)cc1`, the melting point was 98 to 115 °C.

`N#Cc1cc(N)c(F)c(-c2ccc(Cl)cc2)n1` gave a melting point of 185 to 188 °C.

As for `CCOC(=O)c1c(Cn2cncn2)nc2sc3c(c2c1-c1ccc(OC)c(OC)c1)CCCN3C(=O)OCc1ccccc1`, the melting point is 184 to 185 °C.

Turning to `CCOc1cc(OCC)c2c(c1)S(=O)(=O)N(COc1cc(C(F)(F)F)nn1-c1ccccc1)C2=O`, the melting point fell in the range of 159 to 160 °C.

`CC(N)c1ccc2c(c1)CCCN2C(=O)OC(C)(C)C` (centres undefined) gave a melting point of 73 to 75 °C.

The molecule `O=[N+]([O-])c1cccnc1Nc1ccc(O)cc1` yielded a melting point of 143 to 144 °C.

As to `COC(=O)c1sc(C#N)cc1[N+](=O)[O-]`, the melting point is 83 to 85 °C.

As to `COc1ccc(/C=C/c2nc3c([nH]2)c(=O)n(C)c(=O)n3C)c(OC)c1C`, the melting point is more than 280 °C.

`CCOC(=O)C1=C(O)c2cc(OC)c(OC)cc2NC(=O)C1` had a melting point of 218 °C.

Take `COc1c(C)c(C)c(OC)c(CC/C(C)=C/CO)c1C`: the melting point was 46 °C.

Take `CS(=O)(=O)c1ccc(-c2sc(Cc3ccccc3)nc2-c2ccc(F)cc2)cc1`: the melting point fell in the range of 117 to 118 °C.

Turning to `CCCc1c(OCCCCCC(=O)c2cc(C)c(OC)c(OC)c2C)ccc(C(=O)O)c1O`, the melting point lay within 92 to 94 °C.

For `C#CCN1CCCc2ccc(OC(=O)Nc3c(C)cccc3C(C)C)cc21`, the melting point came out at 120 °C.

Regarding `CN(CC(=O)O)C(=O)CN1CCCC1=O`, the melting point is 178 °C.

With `COc1ccc(Cn2c(=O)cc(-c3ccccn3)c3cnc(N4CCC[C@H]4CO)nc32)cc1Cl`, the melting point fell in the range of 184 to 186 °C.

Consider `CCCCn1c(=O)c([N+](=O)[O-])c(NC)c2ccccc21`, for which the melting point is 225 to 227 °C.

Molecule `CC[C@@]1(O)C(=O)OCc2c1cc1n(c2=O)Cc2c-1nc1ccc(Cl)c3c1c2C(NC(C)=O)CN3` (some centres undefined) had a melting point of 250 to 270 °C.

The molecule `O=C(O)c1cn(C2CC2)c2nc(N3CCC(c4cccnc4)C3)c(F)cc2c1=O` (centres undefined) had a melting point of 226 to 228 °C.

For `Brc1ccc(-c2ccc(I)cc2)cc1`, the melting point lay in the range of 177 to 179 °C.

For the molecule `C=C(Cc1ccccc1)C(=O)O`, the melting point was 61 to 62 °C.

`CNC(=NC#N)NCCCCCc1csc(NC(=N)N)n1`: the melting point fell in the range of 109 to 113 °C.

Molecule `CC(C)(C)CNc1cc(NCC(C)(C)C)nc(Cl)n1` yielded a melting point of 178 to 185 °C.

In turn, `COc1ccc2cc(-c3cnc(Cc4ccc5ccccc5c4)o3)ccc2c1` displayed a melting point of 159 to 162 °C.

`O=C(O)c1ccc(OCCCCCCc2ccc3cc(O)c(O)cc3c2)cc1O` came in with a melting point of 190 to 192 °C.
